Measurements taken from paper PMC12148480 (The Journal of Biological Chemistry, 2025).
Entries after “also recorded” stand apart in the source; their conditions may differ.

Assays:
CaMKIIα-WT hub protein = biological target: CaMKIIα-WT hub protein; parameters: method as in PMID 39275999; settings: SPR, purified CaMKIIα-WT hub; cited from earlier work
[1] = biological target: CaMKIIα-W403L hub protein; parameters: method as in PMID 39275999; settings: SPR, purified CaMKIIα-W403L hub; cited from earlier work
[2] = cited from earlier work
[3] = biological target: T1, rat brain cortical homogenates (Rattus norvegicus, UniProt P11275); test: [3H]NCS-382 binding to rat brain cortical homogenates
T1 construct: from tissue; host or cells: rat brain cortical homogenate
T1 sequence (P11275 whole entry): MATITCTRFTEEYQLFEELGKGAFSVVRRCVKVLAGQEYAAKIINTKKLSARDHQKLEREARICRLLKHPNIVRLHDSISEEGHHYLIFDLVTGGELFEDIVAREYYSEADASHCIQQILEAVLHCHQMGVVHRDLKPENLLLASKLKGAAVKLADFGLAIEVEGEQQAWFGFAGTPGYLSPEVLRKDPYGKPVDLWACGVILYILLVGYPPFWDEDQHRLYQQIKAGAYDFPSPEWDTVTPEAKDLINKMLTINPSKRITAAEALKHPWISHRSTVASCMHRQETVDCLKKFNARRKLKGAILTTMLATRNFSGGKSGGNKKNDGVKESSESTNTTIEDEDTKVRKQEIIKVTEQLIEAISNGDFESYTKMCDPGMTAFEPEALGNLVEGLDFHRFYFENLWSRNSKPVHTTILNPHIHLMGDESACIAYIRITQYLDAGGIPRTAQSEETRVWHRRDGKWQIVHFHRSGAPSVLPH

CaMKIIα R469Q = biological target: T2, CaMKIIα R469Q (Rattus norvegicus, UniProt P11275, R469Q); test: [3H]HOCPCA binding, HEK293T whole-cell homogenate, CaMKIIα R469Q; settings: 40 nM radioligand
T2 construct: host or cells: HEK293T whole-cell homogenate
T2 sequence (P11275 whole entry R469Q): as the sequence (P11275 whole entry) above, with R469Q counted along it
Description: (§1) Recombinant HEK293T whole-cell homogenate equilibrium binding experiments were performed similar to that described previously ([14]), using a 48-well assay format. […] The binding reaction was terminated by precipitation with ice-cold acetone (1 h at −20 °C), and radioligand-bound protein was separated from free radioligand by vacuum-filtration through glass fibre (GF/C) filters. Counts (disintegrations per minute [DPM]) were detected by liquid scintillation counting ([14]). Counts for CaMKIIα WT typically ranged from 2000 to 6000 DPM with [^3H]HOCPCA and 1800 to 5000 DPM with [^3H]O-5-HDC, slightly lower for the CaMKIIβ […] mutant. All experiments were performed in technical triplicates using at least three different batches of HEK293T cell homogenates.
(§2) Data analysis: The specific binding was determined as Total binding subtracted NSB. For the pooling of data from recombinant binding, the specific binding of the variant was normalized to the specific binding of CaMKIIα WT within each experiment.

CaMKIIβ L467W = biological target: T3, CaMKIIβ L467W (Rattus norvegicus, UniProt P08413, L467W); test: [3H]HOCPCA binding, HEK293T whole-cell homogenate, CaMKIIβ L467W
T3 construct: host or cells: HEK293T whole-cell homogenate
T3 sequence (P08413 whole entry L467W): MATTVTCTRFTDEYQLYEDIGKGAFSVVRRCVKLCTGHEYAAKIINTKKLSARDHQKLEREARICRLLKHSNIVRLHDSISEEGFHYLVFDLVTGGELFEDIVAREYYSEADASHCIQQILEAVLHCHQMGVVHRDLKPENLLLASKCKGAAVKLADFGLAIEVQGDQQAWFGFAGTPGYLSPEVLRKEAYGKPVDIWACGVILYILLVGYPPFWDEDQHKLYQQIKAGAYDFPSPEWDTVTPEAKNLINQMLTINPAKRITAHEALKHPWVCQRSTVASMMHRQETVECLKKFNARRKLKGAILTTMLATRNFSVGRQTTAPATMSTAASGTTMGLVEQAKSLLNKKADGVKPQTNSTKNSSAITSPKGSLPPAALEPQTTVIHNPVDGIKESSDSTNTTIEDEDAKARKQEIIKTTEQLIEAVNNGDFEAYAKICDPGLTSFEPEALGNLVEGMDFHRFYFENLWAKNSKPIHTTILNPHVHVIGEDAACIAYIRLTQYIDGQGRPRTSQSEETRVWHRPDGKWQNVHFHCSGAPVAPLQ
Description: as §1, §2

CaMKIIα R433Q = biological target: T4, CaMKIIα R433Q (Rattus norvegicus, UniProt P11275, R433Q); test: [3H]HOCPCA binding, HEK293T whole-cell homogenate, CaMKIIα R433Q; settings: 40 nM radioligand
T4 construct: host or cells: HEK293T whole-cell homogenate
T4 sequence (P11275 whole entry R433Q): as the sequence (P11275 whole entry) above, with R433Q counted along it
Description: as §1, §2

CaMKIIα H395A = biological target: T5, CaMKIIα H395A (Rattus norvegicus, UniProt P11275, H395A); test: [3H]HOCPCA binding, HEK293T whole-cell homogenate, CaMKIIα H395A; settings: normalized to CaMKIIα WT
T5 construct: host or cells: HEK293T whole-cell homogenate
T5 sequence (P11275 whole entry H395A): as the sequence (P11275 whole entry) above, with H395A counted along it
Description: as §1, §2

CaMKIIα R453Q = biological target: T6, CaMKIIα R453Q (Rattus norvegicus, UniProt P11275, R453Q); test: [3H]HOCPCA binding, HEK293T whole-cell homogenate, CaMKIIα R453Q; settings: normalized to CaMKIIα WT
T6 construct: host or cells: HEK293T whole-cell homogenate
T6 sequence (P11275 whole entry R453Q): as the sequence (P11275 whole entry) above, with R453Q counted along it
Description: as §1, §2

CaMKIIγ C518R = biological target: T7, CaMKIIγ C518R (Rattus norvegicus, UniProt P11730, C518R); test: [3H]HOCPCA binding, HEK293T whole-cell homogenate, CaMKIIγ C518R
T7 construct: host or cells: HEK293T whole-cell homogenate
T7 sequence (P11730 whole entry C518R): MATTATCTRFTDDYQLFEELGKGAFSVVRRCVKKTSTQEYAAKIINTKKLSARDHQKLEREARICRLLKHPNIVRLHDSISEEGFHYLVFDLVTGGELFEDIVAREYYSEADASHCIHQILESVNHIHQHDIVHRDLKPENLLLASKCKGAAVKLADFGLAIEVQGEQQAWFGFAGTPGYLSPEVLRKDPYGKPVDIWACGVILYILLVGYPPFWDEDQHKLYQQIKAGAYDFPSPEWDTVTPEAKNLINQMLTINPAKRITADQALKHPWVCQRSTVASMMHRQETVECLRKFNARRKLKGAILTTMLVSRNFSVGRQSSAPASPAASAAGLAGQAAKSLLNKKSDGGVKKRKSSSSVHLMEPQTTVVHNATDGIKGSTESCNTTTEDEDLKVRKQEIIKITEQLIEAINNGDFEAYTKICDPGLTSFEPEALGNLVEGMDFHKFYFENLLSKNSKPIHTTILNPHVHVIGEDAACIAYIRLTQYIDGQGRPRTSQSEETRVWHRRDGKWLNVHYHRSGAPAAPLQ
Description: as §1, §2

CaMKIIβ WT = biological target: T8, CaMKIIβ WT (Rattus norvegicus, UniProt P08413); test: [3H]HOCPCA binding, HEK293T whole-cell homogenate, CaMKIIβ WT
T8 construct: host or cells: HEK293T whole-cell homogenate
T8 sequence (P08413 whole entry): as the sequence (P08413 whole entry L467W) above, with W467L counted along it
Description: as §1, §2

CaMKIIβ L467W/C533R [4] = biological target: T9, CaMKIIβ L467W/C533R (Rattus norvegicus, UniProt P08413, C533R/L467W); test: [3H]HOCPCA binding, HEK293T whole-cell homogenate, CaMKIIβ L467W/C533R
T9 construct: host or cells: HEK293T whole-cell homogenate
T9 sequence (P08413 whole entry L467W/C533R): as the sequence (P08413 whole entry L467W) above, with C533R counted along it
Description: as §1, §2

CaMKIIα W403L = biological target: T10, CaMKIIα W403L (Rattus norvegicus, UniProt P11275, W403L); test: [3H]HOCPCA binding, HEK293T whole-cell homogenate, CaMKIIα W403L; settings: p = 0.0038
T10 construct: host or cells: HEK293T whole-cell homogenate
T10 sequence (P11275 whole entry W403L): as the sequence (P11275 whole entry) above, with W403L counted along it
Description: as §1, §2

[5] = test system: CaMKIIα (rat cortical homogenate); parameters: method as in earlier work; settings: comparative value, [3H]HOCPCA binding, ref 1 (Leurs et al., PNAS 2021); cited from earlier work
[6] = biological target: T11, CaMKIIα R433Q/R453Q/R469Q (Rattus norvegicus, UniProt P11275, R433Q/R453Q/R469Q); test: [3H]HOCPCA binding, HEK293T whole-cell homogenate, CaMKIIα triple mutant; settings: CaMKIIα triple mutant RRR433/453/469QQQ
T11 construct: host or cells: HEK293T whole-cell homogenate
T11 sequence (P11275 whole entry R433Q/R453Q/R469Q): as the sequence (P11275 whole entry) above, with R433Q, R453Q, R469Q counted along it
Description: as §1, §2

CaMKIIβ C533R = biological target: T12, CaMKIIβ C533R (Rattus norvegicus, UniProt P08413, C533R); test: [3H]HOCPCA binding, HEK293T whole-cell homogenate, CaMKIIβ C533R
T12 construct: host or cells: HEK293T whole-cell homogenate
T12 sequence (P08413 whole entry C533R): as the sequence (P08413 whole entry L467W) above, with W467L, C533R counted along it
Description: as §1, §2

[7] = biological target: CaMKIIα (rat cortical homogenate); settings: inhibition of [3H]HOCPCA binding, ref 1 (Leurs et al., PNAS 2021); read-out: Comparative Ki, [3H]HOCPCA binding; cited from earlier work
[8] = biological target: native CaMKIIα (rat cortical homogenate) (Rattus norvegicus, UniProt P11275); test: Competitive inhibition of [3H]O-5-HDC binding, rat cortical homogenate; parameters: native CaMKIIα (rat cortical homogenate); from tissue; host or cells: rat cerebral cortex homogenate
Sequence of native CaMKIIα (rat cortical homogenate) (P11275 whole entry): as the sequence (P11275 whole entry) above
Description: Ki values were obtained from the One Site-Fit Ki model utilizing the following Cheng-Prusoff equation: […]
Where [RL] represents the specific radioligand concentration from each experiment and KD is the dissociation constant of [^3H]O-5-HDC acquired from saturation curves.

ischemia = settings: several mouse models of ischemia; cited from earlier work
CaMKIIα [9] = settings: cited from earlier work
CaMKIIα [10] = settings: CaMKIIα binding assays previously reported; cited from earlier work
CaMKIIβ L467W/C533R [11] = biological target: T9, CaMKIIβ L467W/C533R; test: Displacement of [3H]O-5-HDC binding in CaMKIIβ L467W/C533R HEK293T homogenate
Description: as §1, §2
Specific binding (% of control)=Top-Bottom1+10(log(IC50-[compound]))
where top and bottom represent the upper and lower plateaus of the curve, respectively.

In the case of `O=C(O)Cc1cn2nc(-c3ccc(Cl)cc3)ccc2n1` [PIPA], the Kd (CaMKIIα-WT hub protein) is listed as 1400 nM and the Kd [1] is listed as 2800 nM.
For `O=C(O)Cc1cc(O)ccc1Nc1c(Cl)cccc1Cl` [5-HDC, 5-hydroxydiclofenac], the chemical stability [2] is listed as “chemically unstable”.
With `O=C(O)Cc1c(Oc2ccccc2Cl)cc(I)c(O)c1I` [compound 2] the affinity [3] was “mid-micromolar” and the “change in affinity in comparison to O-5-HDC” value [3] was 100 X.
In the case of `[3H]C1(O)C=C(C(=O)O)CC1` (stereo not drawn) [[^3H]HOCPCA], the “specific [3H]HOCPCA binding” value (CaMKIIα R469Q) is reported as “completely abolished”, the “specific [3H]HOCPCA binding” value (CaMKIIβ L467W) is reported as “no detected specific [^3H]HOCPCA binding; also recorded: Neither of these led to any noticeable radioligand binding” and the “specific [3H]HOCPCA binding” value (CaMKIIα R433Q) is reported as “completely abolished”. For the same molecule, the “specific [3H]HOCPCA binding remaining” value (CaMKIIα H395A) was 7–9%, the “specific [3H]HOCPCA binding remaining” value (CaMKIIα R453Q) was 7–9% and the “specific [3H]HOCPCA binding” value (CaMKIIγ C518R) was “no specific binding”. The “specific [3H]HOCPCA binding” value (CaMKIIβ WT) was “no detected specific [^3H]HOCPCA binding”, the “specific [3H]HOCPCA binding” value (CaMKIIβ L467W/C533R [4]) was “no detected specific [^3H]HOCPCA binding; also recorded: Neither of these led to any noticeable radioligand binding” and the “specific [3H]HOCPCA binding” value (CaMKIIα W403L) was 70 % of WT. For the same molecule, the Bmax [5] was 43 pmol/mg protein, the Kd [5] was 260 nM and the “pKd ± SEM” value [5] was 6.6 ± 0.06. For the same molecule, the “specific [3H]HOCPCA binding” value [6] was “completely binding-deficient” and the “specific [3H]HOCPCA binding” value (CaMKIIβ C533R) was “no specific binding”.
In the case of `O=C(O)C1=CC(O)CC1` (stereo not drawn) [HOCPCA, 3-hydroxycyclopent-1-enecarboxylic acid], the Ki [7] is listed as 130 nM, the Ki ([8]; Ki) is listed as 1270 nM and the Ki ([8]; pKi ± S.E.M., inhibition of [3H]O-5-HDC binding, rat cortical homogenate, n = 4) is listed as 1170 nM. For the same molecule, the “lower affinity in displacing [3H]O-5-HDC than [3H]HOCPCA” value ([8]; rat cortical homogenate) was 10 fold, the neuroprotection (ischemia) was “neuroprotective” and the “effect on CaMKIIα activity (syntide-2 phosphorylation)” value (CaMKIIα [9]) was “not to affect CaMKIIα activity”.
In the case of `O=C(O)Cc1cc(O)ccc1Oc1ccccc1Cl`, the Ki (CaMKIIα [10]) is listed as 27 nM.
With `O=C(O)Cc1cc(O)c(I)cc1Oc1ccccc1Cl` [compound 1] the affinity [3] was “mid-micromolar” and the “change in affinity in comparison to O-5-HDC” value [3] was 100 X.
For `O=C(O)CCCO` [GHB, γ-hydroxybutyric acid], the IC50 (CaMKIIβ L467W/C533R [11]; IC50, displacement of [3H]O-5-HDC) was 710000 nM, the IC50 (CaMKIIβ L467W/C533R [11]; pIC50 (value in parentheses after IC50), displacement of [3H]O-5-HDC) was 676000 nM and the “lower affinity in displacing [3H]O-5-HDC than [3H]HOCPCA” value ([8]; rat cortical homogenate) was 10 fold. For the same molecule, the neuroprotection (ischemia) was “neuroprotective” and the “effect on CaMKIIα activity (syntide-2 phosphorylation)” value (CaMKIIα [9]) was “not to affect CaMKIIα activity”.
